Source: the NIST ThermoML archive (doi:10.1016/j.jct.2019.04.014)

Experiments:
[1] = for Normal melting temperature: Crystal, DTA; for vapor or sublimation pressure: Liquid, Determined from thermal gravimetric analysis data
[2] = Molar enthalpy of transition or fusion; conditions: Crystal; DSC
[3] = Boiling temperature at pressure P; conditions: 94.4 kPa; Liquid; DSC

[O-][n+]1ccccc1S [2-mercaptopyridine N-oxide]
Conditions | Molar enthalpy of transition or fusion [kcal/mol] | Normal melting temperature [°C]
[1] | – | 71.20
[2] | 3.18 | –

Cc1cc(C)c[n+]([O-])c1 [3,5-dimethylpyridine N-oxide]
Conditions | Boiling temperature at pressure P [°C] | Molar enthalpy of transition or fusion [kcal/mol] | Normal melting temperature [°C]
[1] | – | – | 101.30
[2] | – | 2.96 | –
[3] | 291.70 | – | –

[O-][n+]1cccc(O)c1 [3-hydroxypyridine-N-oxide]
Conditions | Molar enthalpy of transition or fusion [kcal/mol] | Normal melting temperature [°C]
[1] | – | 189.70
[2] | 4.5 | –

Cc1ccc[n+]([O-])c1 [3-picoline N-oxide]
[1]
Conditions | vapor or sublimation pressure [kPa]
433.15 K | 4.26
435.15 K | 4.48
440.15 K | 5.4
443.15 K | 5.93
445.15 K | 6.29
447.15 K | 6.89
450.15 K | 7.47
453.15 K | 8.23
455.15 K | 8.91
457.15 K | 9.28
460.15 K | 10.15
463.15 K | 10.93
465.15 K | 11.69
467.15 K | 12.28
470.15 K | 13.42
473.15 K | 14.64
475.15 K | 15.17
477.15 K | 16.14
480.15 K | 17.37
483.15 K | 18.4
485.15 K | 19.19
487.15 K | 20.28
490.15 K | 21.69
493.15 K | 23.24
495.15 K | 24.75
497.15 K | 25.56
500.15 K | 27.36
503.15 K | 29.43
505.15 K | 31
507.15 K | 32.53
510.15 K | 35.18
513.15 K | 37.62
515.15 K | 38.66
517.15 K | 40.64

Conditions | Boiling temperature at pressure P [°C] | Molar enthalpy of transition or fusion [kcal/mol] | Normal melting temperature [°C]
[1] | – | – | 37.10
[2] | – | 2.52 | –
[3] | 283.80 | – | –

O=C(O)c1ccc[n+]([O-])c1 [3-pyridinecarboxylic acid N-oxide]
Conditions | Molar enthalpy of transition or fusion [kcal/mol] | Normal melting temperature [°C]
[1] | – | 258.30
[2] | 5.63 | –

Cc1cc[n+]([O-])cc1 [4-methylpyridine-N-oxide]
Conditions | Boiling temperature at pressure P [°C] | Molar enthalpy of transition or fusion [kcal/mol] | Normal melting temperature [°C]
[1] | – | – | 184.60
[2] | – | 4.51 | –
[3] | 287.30 | – | –

O=[N+]([O-])c1cc[n+]([O-])cc1 [4-nitropyridine N-oxide]
Conditions | Molar enthalpy of transition or fusion [kcal/mol] | Normal melting temperature [°C]
[1] | – | 160.80
[2] | 4.18 | –

O=C(O)c1cc[n+]([O-])cc1 [4-pyridinecarboxylic acid N-oxide]
Conditions | Molar enthalpy of transition or fusion [kcal/mol] | Normal melting temperature [°C]
[1] | – | 268.50
[2] | 5.76 | –

O=C(O)c1ccccc1 [benzoic acid]
Conditions | Normal melting temperature [°C]
[1] | 121.60

NC(=O)c1ccc[n+]([O-])c1 [nicotinamide N-oxide]
Conditions | Normal melting temperature [°C]
[1] | 289.50

O=C(O)c1cccc[n+]1[O-] [picolinic acid N-oxide]
Conditions | Boiling temperature at pressure P [°C] | Molar enthalpy of transition or fusion [kcal/mol] | Normal melting temperature [°C]
[1] | – | – | 163.80
[2] | – | 7.21 | –
[3] | 267.60 | – | –

[O-][n+]1ccccc1 [pyridine N-oxide]
[1]
Conditions | vapor or sublimation pressure [kPa]
425.15 K | 2.5
427.15 K | 2.66
433.15 K | 3.33
435.15 K | 3.59
440.15 K | 4.28
443.15 K | 4.86
445.15 K | 5.22
447.15 K | 5.5
450.15 K | 6.19
453.15 K | 6.84
455.15 K | 7.36
457.15 K | 7.89
460.15 K | 8.88
463.15 K | 9.76
465.15 K | 10.41
467.15 K | 11.15
470.15 K | 12.44
473.15 K | 13.57
475.15 K | 14.4
477.15 K | 15.28
480.15 K | 16.58

Conditions | Boiling temperature at pressure P [°C] | Molar enthalpy of transition or fusion [kcal/mol] | Normal melting temperature [°C]
[1] | – | – | 63.80
[2] | – | 2.31 | –
[3] | 267.60 | – | –

[O-][n+]1cccc2ccccc21 [quinoline 1-oxide]
Conditions | Molar enthalpy of transition or fusion [kcal/mol] | Normal melting temperature [°C]
[1] | – | 55.40
[2] | 2.45 | –
